Legend:
[1] = biological target: ROCK-I (h, amino acids 17-535) (Homo sapiens (Human), UniProt Q13464); test: ROCK-I (h) inhibition assay; format: biochemical; conditions: radiometric [γ-32P-ATP] filter assay, 40 minutes at room temperature; read-out: ROCK1 IC50
Method: ROCK-I (h) Inhibition Assay:
In a final reaction volume of 25 μL, ROCK-I (h, amino acids 17-535) (5-10 mU) was incubated with 8 mM MOPS pH 7.0, 0.2 mM EDTA, 30 μM […], 10 mM magnesium acetate and [γ-^32P-ATP] (specific activity approx. 500 cpm/pmol, concentration as required). The reaction was initiated by the addition of the MgATP mix. After incubation for 40 minutes at room temperature, the reaction was stopped by the addition of 5 μL of a 3% phosphoric acid solution. 10 μL of the reaction was then spotted onto a P30 filtermat and washed three times for 5 minutes in 75 mM phosphoric acid and once in methanol prior to drying and scintillation counting.

[2] = biological target: ROCK-II (h, amino acids 11-552) (Homo sapiens (Human), UniProt O75116); test: ROCK-II (h) inhibition assay; format: biochemical; conditions: radiometric [γ-32P-ATP] filter assay, 40 minutes at room temperature; read-out: ROCK2 IC50
ROCK-II (h, amino acids 11-552), sequence (O75116 11-552): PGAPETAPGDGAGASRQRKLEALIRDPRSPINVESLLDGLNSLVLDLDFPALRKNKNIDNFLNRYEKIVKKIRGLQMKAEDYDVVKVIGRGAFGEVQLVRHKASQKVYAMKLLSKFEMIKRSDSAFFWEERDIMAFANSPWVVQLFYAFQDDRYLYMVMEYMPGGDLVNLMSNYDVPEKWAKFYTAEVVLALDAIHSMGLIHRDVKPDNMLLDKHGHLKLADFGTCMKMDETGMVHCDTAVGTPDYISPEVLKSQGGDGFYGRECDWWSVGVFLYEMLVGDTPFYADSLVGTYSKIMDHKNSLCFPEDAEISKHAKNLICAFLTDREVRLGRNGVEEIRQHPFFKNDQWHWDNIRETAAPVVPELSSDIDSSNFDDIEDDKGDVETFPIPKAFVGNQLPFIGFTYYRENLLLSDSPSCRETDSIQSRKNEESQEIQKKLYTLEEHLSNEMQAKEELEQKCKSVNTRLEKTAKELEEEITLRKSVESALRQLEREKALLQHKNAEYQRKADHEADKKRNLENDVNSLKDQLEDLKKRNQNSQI
Method: ROCK-II (h) Inhibition Assay:
In a final reaction volume of 25 μL, ROCK-II (h, amino acids 11-552) (5-10 mU) was incubated with 50 mM Tris pH 7.5, 0.1 mM EGTA, 30 μM […], 10 mM magnesium acetate and [γ-^32P-ATP] (specific activity approx. 500 cpm/pmol, concentration as required). The reaction was initiated by the addition of the MgATP mix. After incubation for 40 minutes at room temperature, the reaction was stopped by the addition of 5 μL of a 3% phosphoric acid solution. 10 μL of the reaction was then spotted onto a P30 filter-mat and washed three times for 5 minutes in 75 mM phosphoric acid and once in methanol prior to drying and scintillation counting.

ROCK-I (h, amino acids 17-535), sequence (Q13464 17-535): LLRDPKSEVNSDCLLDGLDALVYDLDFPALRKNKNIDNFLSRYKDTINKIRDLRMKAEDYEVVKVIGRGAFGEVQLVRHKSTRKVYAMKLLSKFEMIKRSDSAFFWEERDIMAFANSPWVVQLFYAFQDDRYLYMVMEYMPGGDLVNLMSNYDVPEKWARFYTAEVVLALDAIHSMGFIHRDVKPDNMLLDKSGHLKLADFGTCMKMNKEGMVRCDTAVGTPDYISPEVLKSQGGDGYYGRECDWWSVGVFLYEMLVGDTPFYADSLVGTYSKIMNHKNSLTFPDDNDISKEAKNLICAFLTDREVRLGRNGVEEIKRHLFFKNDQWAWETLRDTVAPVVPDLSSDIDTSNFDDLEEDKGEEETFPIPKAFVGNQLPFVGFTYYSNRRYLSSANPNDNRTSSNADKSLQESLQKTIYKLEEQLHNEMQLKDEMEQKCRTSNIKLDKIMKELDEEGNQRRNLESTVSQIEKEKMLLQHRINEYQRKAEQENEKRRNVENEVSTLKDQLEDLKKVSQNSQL

SMILES | IC50 [1] [µM] | IC50 [2] [nM]
C[C@@]1(Cc2ccc(-c3ccncc3)cc2)NC(=O)c2cc(Cl)ccc2NC1=O [Compound 2, (S)-7-chloro-3-methyl-3-(4-(pyridin-4-yl)benzyl)-3,4-dihydro-1H-benzo[e][1,4]diazepine-2,5-dione] | > 10 | 
CN1C(=O)[C@@H](Cc2ccc(-c3ccncc3)cc2)NC(=O)c2cc(Cl)ccc21 [Compound 1, (R)-7-chloro-1-methyl-3-(4-(pyridin-4-yl)benzyl)-3,4-dihydro-1H-benzo[e][1,4]diazepine-2,5-dione] | > 30 | 1100

Now from value to compound:

IC50 [1] [µM] | IC50 [2] [nM] | SMILES
> 30 | 860 | CN1C(=O)[C@@H](Cc2ccc(-c3ccncc3)cc2)NC(=O)c2c(Cl)cccc21 [Compound 3, (R)-6-chloro-1-methyl-3-(4-(pyridin-4-yl)benzyl)-3,4-dihydro-1H-benzo[e][1,4]diazepine-2,5-dione]
> 10 |  | CN1C(=O)[C@@H](Cc2ccc(-c3ccncc3)cc2)NC(=O)c2cccc(Cl)c21 [Compound 5, (R)-9-chloro-1-methyl-3-(4-(pyridin-4-yl)benzyl)-3,4-dihydro-1H-benzo[e][1,4]diazepine-2,5-dione]
> 10 | 800 | CN1C(=O)[C@@H](Cc2ccc(-c3ccncc3)cc2)NC(=O)c2ccc(Cl)cc21 [Compound 4, (R)-8-chloro-1-methyl-3-(4-(pyridin-4-yl)benzyl)-3,4-dihydro-1H-benzo[e][1,4]diazepine-2,5-dione]

Source: patent US9126978B2, “1,4-benzodiazepine-2,5-diones and related compounds with therapeutic properties” (The Regents of the University of Michigan, priority 2009, dated 2015)
